# Laboratory results published in PubChem BioAssay AID652220 (The Scripps Research Institute Molecular Screening Center, 2013).
# Target: Serine/threonine-protein phosphatase PP1-alpha catalytic subunit (Homo sapiens) (UniProt P62136)
# Assay: dose-dependent PP1alpha phosphatase inhibition – biochemical, fluorescence, OMFP substrate, set 3, dose response (AID 652220)
# Details: purified PP1alpha, OMFP dephosphorylation
# Sequence of Serine/threonine-protein phosphatase PP1-alpha catalytic subunit (Homo sapiens) (P62136 whole entry, looked up): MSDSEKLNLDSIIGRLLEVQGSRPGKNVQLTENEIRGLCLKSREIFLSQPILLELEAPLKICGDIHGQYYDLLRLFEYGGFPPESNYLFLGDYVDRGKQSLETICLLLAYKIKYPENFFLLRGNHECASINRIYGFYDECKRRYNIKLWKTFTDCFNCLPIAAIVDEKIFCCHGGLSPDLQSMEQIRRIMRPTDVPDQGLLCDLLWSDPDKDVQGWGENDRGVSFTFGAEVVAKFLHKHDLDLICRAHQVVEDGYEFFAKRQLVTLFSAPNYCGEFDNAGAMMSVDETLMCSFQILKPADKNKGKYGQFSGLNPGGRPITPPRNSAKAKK
row,Structure (SMILES),IC50
1,CN1CCN([C@H](c2ncccn2)c2ccc3cccnc3c2O)CC1,5.86 µM
2,CN1CCN([C@@H](c2ncccn2)c2ccc3cccnc3c2O)CC1,4.81 µM
